From paper PMC7997574, “Lead Optimization of Benzoxazolone Carboxamides as Orally Bioavailable and CNS Penetrant Acid Ceramidase Inhibitors” (Journal of Medicinal Chemistry, 2020)

Legend:
GluSph (d18:1) = assay: Brain GluSph levels in 4L;C* mice (neuropathic Gaucher's disease model); type: in vivo, mouse
Description: 4L;C* mice (C57BL/6 J/129SvEV) were randomly assigned to three treatment groups (N = 4–8 with mixed males and females) and dosed once a day i.p. with 90 or 30 mg kg^–1 of 22m or vehicle. Treatment started at 5 days of age for a duration of 14 days. The application volume was set to 10 μL per gram of body weight, and dosage was adjusted accordingly. Animals of all groups were sacrificed 1 h after the last dose, and the brain tissues and plasma were collected. The left brain containing cortex, cerebella, thalamus, and brainstem was analyzed for SphL levels by MS. Data were analyzed using the Student t test. The right brain containing cortex, cerebella, thalamus, and brainstem and plasma were analyzed for drug levels of 22m. All mice were housed under pathogen-free conditions in the animal facility, and animal experiment was performed according to the IACUC approved protocol (2018-0056) at Cincinnati Children’s Hospital Research Foundation. Wild Type (WT) (GALC+/+) and Twitcher (Twi) (GALC–/−) mice were genotyped by PCR as previously described.[58] […] The left brain containing cortex, cerebella, thalamus, and brainstem was analyzed for SphL levels by MS. Data were analyzed using the Student t test. The right brain containing cortex, cerebella, thalamus, and brainstem and plasma were analyzed for drug levels of 22m. […]

[1] = target: T1, human N-acylethanolamine acid amidase (hNAAA) (Homo sapiens, UniProt Q02083); assay: Fluorogenic hNAAA assay; type: biochemical
T1 construct: expressed in transfected cells
T1 sequence (Q02083 29-359): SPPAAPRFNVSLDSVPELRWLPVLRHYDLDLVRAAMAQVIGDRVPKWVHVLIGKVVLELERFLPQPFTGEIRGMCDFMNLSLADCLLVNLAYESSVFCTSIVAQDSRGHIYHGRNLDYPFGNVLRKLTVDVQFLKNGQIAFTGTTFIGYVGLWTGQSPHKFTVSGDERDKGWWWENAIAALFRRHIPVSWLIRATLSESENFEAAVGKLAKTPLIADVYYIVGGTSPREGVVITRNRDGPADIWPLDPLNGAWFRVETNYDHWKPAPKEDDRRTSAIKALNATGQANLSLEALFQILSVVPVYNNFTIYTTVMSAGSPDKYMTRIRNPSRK
Description: HEK-293 cells stably transfected with the hNAAA coding sequence cloned from a human spleen cDNA library (catalog no. 639124, Clontech, Mountain View, CA, USA) were used as the enzyme source. Cells were grown in Dulbecco’s modified Eagle medium (DMEM) containing 10% FBS, 1% glutamine, 1 mM sodium pyruvate, and 500 μg mL^–1 G418. Cells were harvested, and pellets were stored at −80 °C until lysosomal-enriched lysate preparation. Cells were suspended in 20 mM Tris HCl (pH 7.4) with 0.32 M sucrose, sonicated, and centrifuged at 800 × g for 30 min at 4 °C. Supernatants were then ultracentrifuged at 12000 × g for 30 min at 4 °C. […] The suspension was finally ultracentrifuged at 105000 × g for 1 h at 4 °C, supernatants were collected, protein concentration was measured, and samples were aliquoted and stored at −80 °C until use.
The assay was run in 96-well microplates (Black OptiPlate-96F; PerkinElmer, Massachusetts, USA) in a total reaction volume of 200 μL. hNAAA protein preparation (4.0 μg) was preincubated for 30 min with various concentrations of test compounds or vehicle control (DMSO 5%) in 100 mM citrate/phosphate buffer (pH 4.5) containing 3.0 mM DTT, 0.1% NP40 0.1%, 0.05% BSA, 150 mM NaCl. […] Fluorescence was measured with an EnVision 2014 Multilabel Reader (PerkinElmer, Massachusetts, USA) using an excitation wavelength of 355 nm and emission of 460 nm. […]

## CC(C)CNC(=O)n1c(=O)oc2cc(C3CCN(C)CC3)ccc21 [22m, N-Isobutyl-6-(1-methyl-4-piperidyl)-2-oxo-1,3-benzoxazole-3-carboxamide]
GluSph (d18:1); 30 and 90 mg kg^–1 i.p. once a day for 14 days
  effect on brain GluSph (d18:1): significantly reduces GluSph (d18:1) in the brain of 4L;C* mice in a dose-dependent manner
GluSph (d18:1); brain, 90 mg kg^–1 i.p. once a day for 14 days
  reduction of the GluSph levels relative to control: 54%
[1]
  IC50: 8 µM
